Results: ChEMBL document CHEMBL5104129, “Discovery of a novel 2-spiroproline steroid mimetic scaffold for the potent inhibition of 11β-HSD1” (Bioorg Med Chem Lett, 2022)
Each block holds one compound with its values, some of them ahead of it.

Tests used:
[1] = target: T1, 11-beta-hydroxysteroid dehydrogenase 1 (Homo sapiens, UniProt P28845); experiment: Inhibition of 11beta-HSD1 (unknown origin) using 3H-cortisone as substrate by scintillation proximity assay
[2] = target: hERG (KCNH2) (Homo sapiens, UniProt Q12809); experiment: Inhibition of human ERG expressed in CHO cells at 30 uM at -80 mV holding potential by automated patch clamp assay relative to control; type: toxicity, cell-based; details: CHO cells expressing human ERG
[3] = target: T2, PXR (NR1I2) (Homo sapiens, UniProt O75469); experiment: Activation of human PXR assessed as induction of PXR activity at 10 uM relative to control; details: read-out: Activity
T2 sequence (O75469 whole entry): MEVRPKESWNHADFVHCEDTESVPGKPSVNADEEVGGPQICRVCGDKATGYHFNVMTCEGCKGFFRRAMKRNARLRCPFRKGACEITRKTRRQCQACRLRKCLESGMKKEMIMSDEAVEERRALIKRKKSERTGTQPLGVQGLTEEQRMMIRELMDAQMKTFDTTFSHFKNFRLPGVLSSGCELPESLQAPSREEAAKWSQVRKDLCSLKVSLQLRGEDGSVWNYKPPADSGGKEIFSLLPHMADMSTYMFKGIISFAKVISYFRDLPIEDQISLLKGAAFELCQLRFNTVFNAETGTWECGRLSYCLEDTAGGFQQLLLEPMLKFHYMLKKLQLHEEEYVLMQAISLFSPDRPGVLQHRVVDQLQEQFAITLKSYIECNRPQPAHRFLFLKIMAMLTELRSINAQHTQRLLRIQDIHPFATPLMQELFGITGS

[4] = target: T3, PXR (NR1I2) (Rattus norvegicus, UniProt Q9R1A7); experiment: Activation of rat PXR assessed as induction of PXR activity at 10 uM relative to control; details: read-out: Activity
T3 sequence (Q9R1A7 whole entry): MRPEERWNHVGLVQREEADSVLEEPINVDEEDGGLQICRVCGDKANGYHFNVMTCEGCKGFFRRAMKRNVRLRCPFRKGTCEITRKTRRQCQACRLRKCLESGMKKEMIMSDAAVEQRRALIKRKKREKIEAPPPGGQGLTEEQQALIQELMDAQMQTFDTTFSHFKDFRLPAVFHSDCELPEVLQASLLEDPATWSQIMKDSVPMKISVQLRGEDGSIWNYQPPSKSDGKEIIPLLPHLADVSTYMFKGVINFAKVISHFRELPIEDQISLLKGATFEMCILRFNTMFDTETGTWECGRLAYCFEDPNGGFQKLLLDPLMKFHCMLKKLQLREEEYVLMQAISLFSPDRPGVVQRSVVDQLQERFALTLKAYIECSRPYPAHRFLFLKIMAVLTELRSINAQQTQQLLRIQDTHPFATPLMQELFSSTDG

[5] = target: T1, 11-beta-hydroxysteroid dehydrogenase 1; experiment: Inhibition of 11beta-HSD1 in human PBMC cells using 3H-cortisone as substrate assessed as conversion of cortisone to cortisol by ELISA; type: cell-based
[6] = target: T1, 11-beta-hydroxysteroid dehydrogenase 1; experiment: Inhibition of 11beta-HSD1 (unknown origin)

Chain of hERG (KCNH2) (Q12809 whole entry): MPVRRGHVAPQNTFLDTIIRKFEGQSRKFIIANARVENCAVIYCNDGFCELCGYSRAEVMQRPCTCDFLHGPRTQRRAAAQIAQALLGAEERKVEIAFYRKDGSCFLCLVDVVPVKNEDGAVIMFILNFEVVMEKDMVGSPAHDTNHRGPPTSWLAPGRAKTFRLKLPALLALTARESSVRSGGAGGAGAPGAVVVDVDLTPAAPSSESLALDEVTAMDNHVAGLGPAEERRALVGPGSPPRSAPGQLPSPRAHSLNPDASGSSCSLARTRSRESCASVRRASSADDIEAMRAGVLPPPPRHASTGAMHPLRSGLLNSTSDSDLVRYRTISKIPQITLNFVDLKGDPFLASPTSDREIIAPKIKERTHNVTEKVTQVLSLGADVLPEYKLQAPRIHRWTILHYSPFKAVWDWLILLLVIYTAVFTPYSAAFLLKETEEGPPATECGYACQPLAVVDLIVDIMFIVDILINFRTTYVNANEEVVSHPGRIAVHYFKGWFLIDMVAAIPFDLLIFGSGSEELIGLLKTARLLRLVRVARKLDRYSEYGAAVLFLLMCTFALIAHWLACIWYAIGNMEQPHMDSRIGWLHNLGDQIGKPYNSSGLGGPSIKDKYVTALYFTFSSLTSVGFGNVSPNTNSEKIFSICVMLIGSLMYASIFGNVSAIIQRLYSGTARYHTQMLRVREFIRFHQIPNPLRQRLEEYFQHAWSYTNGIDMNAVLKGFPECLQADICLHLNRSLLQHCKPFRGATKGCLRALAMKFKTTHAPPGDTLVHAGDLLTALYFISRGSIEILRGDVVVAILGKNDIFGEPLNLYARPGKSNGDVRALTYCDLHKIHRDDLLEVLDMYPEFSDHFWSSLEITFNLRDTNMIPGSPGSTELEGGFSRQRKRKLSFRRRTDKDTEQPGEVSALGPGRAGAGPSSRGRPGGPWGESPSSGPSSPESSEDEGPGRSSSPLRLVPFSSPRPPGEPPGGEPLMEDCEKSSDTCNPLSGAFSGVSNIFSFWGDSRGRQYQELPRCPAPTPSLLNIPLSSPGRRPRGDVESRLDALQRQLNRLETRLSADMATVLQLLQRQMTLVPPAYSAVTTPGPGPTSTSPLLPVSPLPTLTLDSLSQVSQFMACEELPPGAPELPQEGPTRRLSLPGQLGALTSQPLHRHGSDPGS
T1 sequence (P28845 whole entry): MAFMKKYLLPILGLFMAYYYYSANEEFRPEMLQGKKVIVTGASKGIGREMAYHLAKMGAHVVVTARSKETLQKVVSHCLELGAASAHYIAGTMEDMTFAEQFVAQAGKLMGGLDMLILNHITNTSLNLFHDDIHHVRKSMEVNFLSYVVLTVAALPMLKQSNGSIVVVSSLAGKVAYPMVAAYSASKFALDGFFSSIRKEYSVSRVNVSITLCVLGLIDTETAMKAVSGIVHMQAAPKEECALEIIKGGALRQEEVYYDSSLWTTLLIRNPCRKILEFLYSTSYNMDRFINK

Compound: CC(C)NC(=O)c1ccc(-c2ccc(CN3C[C@H](O)C[C@]34CCN(C3CCCCC3)C4=O)cc2F)cn1
IC50 [1]: 5 nM | IC50 [5]: 4.9 nM

Compound: O=C(NC12CC3CC(CC(C3)C1)C2)[C@H]1CCCN1Cc1ccccn1
IC50 [6]: 12 nM

Compound: N#Cc1ccc(-c2ccc(CN3C[C@H](O)C[C@]34CCN(C3CCCCC3)C4=O)cn2)cc1
IC50 [1]: 18 nM | IC50 [5]: 35 nM

Compound: O=C1N(C2CCCCC2)CC[C@]12C[C@@H](O)CN2C1CCCC1
IC50 [1]: 351 nM

Compound: CC(C)CN1CCCC12CCN(C13CC4CC(CC(C4)C1)C3)C2=O (stereo not given)
IC50 [1]: 400 nM

Compound: O=C1N(C2CCCCC2)CCC12CCCN2C1CCC1 (stereo not given)
IC50 [1]: > 1000 nM

Compound: CNC(=O)c1ccc(-c2ccc(CN3C[C@H](O)C[C@]34CCN(C3CCCCC3)C4=O)c(F)c2)cn1
IC50 [1]: 9 nM | IC50 [5]: 17 nM

Compound: O=C1N(C23CC4CC(CC(C4)C2)C3)CCC12CCCN2Cc1ccccn1 (stereo not given)
IC50 [1]: 134 nM

Compound: O=C1N(C2CCCCC2)CCC12CCCN2Cc1ccccn1 (stereo not given)
IC50 [1]: 63 nM

Compound: CC(C)N1C[C@H](O)C[C@]12CCN(C1CCCCC1)C2=O
IC50 [1]: > 1000 nM | inhibition at 30 µM [2]: 0% | activity at 10 µM [3]: -0.5% | activity at 10 µM [4]: -0.5% | IC50 [5]: > 37 nM

Compound: O=C1N(c2ccccc2Cl)CCC12CCCN2CC1CC1 (stereo not given)
IC50 [1]: 500 nM

Compound: N#Cc1cccc(-c2ccc(CN3C[C@H](O)C[C@]34CCN(C3CCCCC3)C4=O)cn2)c1
IC50 [1]: 92 nM | IC50 [5]: > 37 nM

More lines, main results first:

IC50 [1]: 2 nM | activity at 10 µM [3]: 14% | activity at 10 µM [4]: 24% | IC50 [5]: 5.9 nM
Compound: CNC(=O)c1ccc(-c2ccc(CN3C[C@@H](F)C[C@]34CCN(C3CCCCC3)C4=O)cc2)cn1
inhibition at 30 µM [2]: 49%

IC50 [1]: 80 nM | IC50 [5]: > 37 nM
Compound: O=C1N(C2CCCCC2)CC[C@]12C[C@@H](O)CN2Cc1ccc(-c2ccc(F)cc2)nc1

IC50 [1]: 7 nM | activity at 10 µM [3]: 80% | activity at 10 µM [4]: 12%
Compound: O=C1N(C2CCCCC2)CCC12CCCN2Cc1ccc(C(F)(F)F)cc1 (stereo not given)
inhibition at 30 µM [2]: 27%

IC50 [1]: 36 nM
Compound: O=C1N(C2CCCCC2)CCC12CCCN2CC1CCCC1 (stereo not given)

IC50 [1]: 188 nM
Compound: N#Cc1cncc(-c2ccc(CN3C[C@H](O)C[C@]34CCN(C3CCCCC3)C4=O)cc2)c1

IC50 [1]: 460 nM
Compound: O=C1N(C2CCCCC2)CCC12CCCN2CC1CCOC1 (stereo not given)

IC50 [1]: > 1000 nM
Compound: O=C(c1ccccn1)N1CCCC12CCN(C1CCCCC1)C2=O (stereo not given)

IC50 [1]: 7 nM | IC50 [5]: 6.6 nM
Compound: O=C1N(C2CCCCC2)CC[C@]12C[C@@H](O)CN2Cc1ccc(-c2ccncc2)cc1

IC50 [1]: 26 nM
Compound: O=C1N(C2CCCC2)CCC12CCCN2Cc1ccc(Cl)cc1 (stereo not given)

IC50 [1]: 6 nM | activity at 10 µM [3]: 42% | activity at 10 µM [4]: 16% | IC50 [5]: 6.2 nM
Compound: O=C1N(C2CCCCC2)CC[C@]12C[C@@H](O)CN2Cc1ccc(Cl)cc1
inhibition at 30 µM [2]: 14%

IC50 [1]: > 1000 nM | activity at 10 µM [3]: 52% | activity at 10 µM [4]: 12% | IC50 [5]: > 37 nM
Compound: O=C1N(C2CCCCC2)CC[C@@]12C[C@H](O)CN2Cc1ccc(Cl)cc1
inhibition at 30 µM [2]: -4.3%

IC50 [1]: 45 nM
Compound: O=C1N(C2CCOCC2)CCC12CCCN2Cc1ccc(Cl)cc1 (stereo not given)

IC50 [1]: 7 nM
Compound: O=C1N(C2CCCCCC2)CCC12CCCN2Cc1ccc(Cl)cc1 (stereo not given)
